Read-outs that look alike come from different tables or passages of the source.
Experiments:
[1] = tested on: 888mel; MART1 expressed cells not having HLA-A2.1
Protocol: (§2) In the evaluation, as target cells, there were used HLA-A2.1-having EBV transformed B-cells which were cultured in the absence of the epitope peptide (name of cells: 221A2.1); a cancer cell line-having HIA-A2.1 which was cultured for two nights in the presence of 100 U/ml IFN-γ (name of cells: 624mel; MART1 expressed cells having HLA-A2.1); or a cancer cell line not having HLA-A2.1 (name of cells: 888mel; MART1 expressed cells not having HLA-A2.1).
(§3) Stimulation by a peptide was not added at all during this culture. On the first day of the initiation of the culture, IL-2 was added so as to have a final concentration of 120 U/ml. […] However, in the group with no addition of the sample, the sample was not added even during medium exchange.

[2] = tested on: anti-tumor-associated antigen(MAGE3)-specific CTLs; assay: Expansion ratio of MAGE3-specific CTLs; type: cell-based, human; settings: sample 10 μg/ml: induction +, 14 days
Excerpt: (§1) CTLs prepared in item (1) of Example 2-1 were washed with 5HRPMI, and then made into a suspension having a concentration of 5×10^4 cells/ml. On the other hand, allogenic PBMCs not having HLA-A24 and HLA-A2.1 which were collected in the same manner as in item (1) of Example 1-1 were subjected to X-ray irradiation (3300R), and the cells were washed with the medium and then made into a suspension having a concentration of 5×10^6 cells/ml. These CTLs (2.5×10^4 cells) and allogenic PBMCs (1.25×10^7 cells) were suspended in 10 ml of 5HRPMI, and anti-CD3 antibody (manufactured by Janssen-Kyowa) was further added thereto so as to give a final concentration of 50 ng/ml. The mixture was placed into a flask of 12.5 cm^2 (manufactured by Falcon), and the cells were cultured in a wet-type CO2 incubator at 37° C. for 14 days. […] The expansion ratio (× times ratio) was calculated by dividing the cell count after the expansion by the cell count before the expansion.

[3] = tested on: HLA-A2.1-having EBV transformed B-cells (221A2.1); assay: Cytotoxic activity of anti-tumor-associated antigen(MAGE3)-specific CTLs on the thirty-fifth day after the initiation of induction; settings: 10 μg/ml
[4] = tested on: anti-influenza virus memory CTLs (FluMPA2.1); type: cell-based, human
[5] = tested on: HLA-A2.1-having EBV transformed B-cells (221A2.1); settings: for Cytotoxic Activity (%) E/T Ratio 10: Example 3-2, REM method, FluMPA2.1, sample 10 μg/ml during CTL induction +, during expansion +, addition of EBV-B cells +
[6] = tested on: HLA-A2.1-having EBV transformed B-cells (221A2.1); assay: Specific cytotoxic activity of MART1-specific CTLs after expansion, EBV transformed B-cell target; type: cell-based, human; settings: for Cytotoxic Activity (%): target cells 221A2.1, sample induction +, expansion +, peptide addition +
Protocol: as §2, §3

[7] = tested on: anti-tumor-associated antigen(MART1)-specific CTLs; assay: Expansion ratio of MART1-specific CTLs; type: cell-based, human; settings: sample 10 μg/ml: induction +, 14 days
Excerpt: as §1

[8] = tested on: HLA-A2.1-having EBV transformed B-cells (221A2.1); settings: for Cytotoxic Activity (%) E/T Ratio 10: Example 3-2, FluMPA2.1, sample 10 μg/ml during CTL induction +, during expansion +, addition of EBV-B cells −; for Cytotoxic Activity (%): sample induction +
[9] = tested on: anti-influenza virus memory CTLs (FluMPA2.1); assay: Expansion ratio of anti-influenza virus memory CTLs (FluMPA2.1), REM method (EBV-B cells added); type: cell-based, human; settings: Example 3-2, sample 10 μg/ml during CTL induction +, addition of EBV-B cells +
[10] = tested on: HLA-A2.1-having EBV transformed B-cells (221A2.1); assay: Specific cytotoxic activity of MAGE3-specific CTLs after expansion; type: cell-based, human; settings: for Cytotoxic Activity (%): sample induction +, expansion +
Excerpt: as §1

## hyaluronic acid
[1]
  Cytotoxic Activity (%): 0%
[2]
  Expansion Ratio: × 217
[3]
  difference in the cytotoxic activity by the presence or absence of the addition during the induction: almost no difference
[4]; Example 3-2, sample 10 μg/ml during CTL induction +, during expansion +, addition of EBV-B cells −
  Expansion Ratio: × 335
[4]; Example 4-1, sample 10 μg/ml: induction +, expansion +, 14 days
  Expansion Ratio: × 493
[4]; Example 4-2, sample 10 μg/ml: induction +, expansion +, 14 days
  Expansion Ratio: × 423
[4]; Example 4-2, sample 10 μg/ml: induction +, expansion −, 14 days
  Expansion Ratio: × 393
[5]; peptide addition +
  Cytotoxic Activity (%) E/T Ratio 10: 95.5%
[5]; peptide addition −
  Cytotoxic Activity (%) E/T Ratio 10: 8.1%
[5]; sample added at the stage of CTL induction prior to the expansion, EBV-B cells added
  cytotoxic activity after expansion according to the REM method (in words): maintained at a high level
[6]; MART1-specific CTLs, sample 10 μg/ml during CTL induction and during expansion
  cytotoxic activity after expansion for 14 days (in words): specific, high cytotoxic activity
[6]; E/T ratio 2
  Cytotoxic Activity (%): 9.1%
[6]; E/T ratio 6
  Cytotoxic Activity (%): 52.8%
[6]; E/T ratio 17
  Cytotoxic Activity (%): 74.4%
[7]
  Expansion Ratio: × 217
[8]; peptide addition +
  Cytotoxic Activity (%) E/T Ratio 10: 60.0%
[8]; peptide addition −
  Cytotoxic Activity (%) E/T Ratio 10: 2.3%
[8]; Example 4-1, expansion +, peptide addition +, E/T ratio 1
  Cytotoxic Activity (%): 31.1%
[8]; Example 4-1, expansion +, peptide addition +, E/T ratio 3
  Cytotoxic Activity (%): 49.8%
[8]; Example 4-1, expansion +, peptide addition +, E/T ratio 10
  Cytotoxic Activity (%): 90.8%
[8]; Example 4-1, expansion +, peptide addition +, E/T ratio 30
  Cytotoxic Activity (%): 105.6%
[8]; Example 4-1, expansion +, peptide addition −, E/T ratio 1
  Cytotoxic Activity (%): 7.3%
[8]; Example 4-1, expansion +, peptide addition −, E/T ratio 3
  Cytotoxic Activity (%): 8.6%
[8]; Example 4-1, expansion +, peptide addition −, E/T ratio 10
  Cytotoxic Activity (%): 13.1%
[8]; Example 4-1, expansion +, peptide addition −, E/T ratio 30
  Cytotoxic Activity (%): 17.0%
[8]; Example 4-2, expansion +, peptide addition +, E/T ratio 1
  Cytotoxic Activity (%): 7.2%
[8]; Example 4-2, expansion +, peptide addition +, E/T ratio 3
  Cytotoxic Activity (%): 23.3%
[8]; Example 4-2, expansion +, peptide addition +, E/T ratio 10
  Cytotoxic Activity (%): 59.6%
[8]; Example 4-2, expansion +, peptide addition +, E/T ratio 30
  Cytotoxic Activity (%): 85.1%
[8]; Example 4-2, expansion +, peptide addition −, E/T ratio 1
  Cytotoxic Activity (%): 0%
[8]; Example 4-2, expansion +, peptide addition −, E/T ratio 3
  Cytotoxic Activity (%): 0%
[8]; Example 4-2, expansion +, peptide addition −, E/T ratio 10
  Cytotoxic Activity (%): 1.9%
[8]; Example 4-2, expansion +, peptide addition −, E/T ratio 30
  Cytotoxic Activity (%): 14.3%
[8]; Example 4-2, expansion −, peptide addition +, E/T ratio 1
  Cytotoxic Activity (%): 9.9%
[8]; Example 4-2, expansion −, peptide addition +, E/T ratio 3
  Cytotoxic Activity (%): 22.1%
[8]; Example 4-2, expansion −, peptide addition +, E/T ratio 10
  Cytotoxic Activity (%): 47.7%
[8]; Example 4-2, expansion −, peptide addition +, E/T ratio 30
  Cytotoxic Activity (%): 78.0%
[8]; Example 4-2, expansion −, peptide addition −, E/T ratio 1
  Cytotoxic Activity (%): 3.0%
[8]; Example 4-2, expansion −, peptide addition −, E/T ratio 3
  Cytotoxic Activity (%): 1.4%
[8]; Example 4-2, expansion −, peptide addition −, E/T ratio 10
  Cytotoxic Activity (%): 4.7%
[8]; Example 4-2, expansion −, peptide addition −, E/T ratio 30
  Cytotoxic Activity (%): 9.3%
[8]; sample 10 μg/ml only during CTL induction
  cytotoxic activity after expansion for 14 days (in words): specific, high cytotoxic activity
[9]
  Expansion Ratio: × 587
[10]; MAGE3-specific CTLs, sample 10 μg/ml during CTL induction and during expansion
  cytotoxic activity after expansion for 14 days (in words): specific, high cytotoxic activity
[10]; peptide addition +, E/T ratio 2
  Cytotoxic Activity (%): 50.3%
[10]; peptide addition +, E/T ratio 6
  Cytotoxic Activity (%): 67.7%
[10]; peptide addition −, E/T ratio 2
  Cytotoxic Activity (%): 3.6%

Reference: patent US7816134B2, “Method of extensive culture of antigen-specific cytotoxic T cells” (Takara Bio Inc., priority 2000, dated 2010)
